The supplement of paper PMC11061612

Legend:
Experiment in all cases: combination Emax (second highest fraction inhibited in the dose matrix, 72 h); higher = more inhibition; extreme values may be limits of the assay
[1] = tested on: CHSA8926 (Chondrosarcoma)
In short: (§1)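 After 24 hours at 37°C and 5% CO2 in 1536-well plates, cells in DMEM/F12 or RPMI plus 10% FBS received two-drug dose matrices for 72 hours. Viability came from CellTiter-Glo 2.0 luminescence and was scaled as inhibition, anchored at 0 by vehicle wells and at 1 by blank wells. Combination Emax is taken as the second-highest inhibition in the matrix, and Bliss excess as the observed combination effect less EA + EB − EA·EB, with EA and EB the single-agent effects.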

[2] = tested on: CW-2 (Colorectal Carcinoma)
In short: as §1

[3] = tested on: DAN-G (Pancreatic Carcinoma)
In short: as §1

[4] = tested on: DMS-114 (Small Cell Lung Carcinoma)
In short: as §1

[5] = tested on: H9 (T-Cell Non-Hodgkin's Lymphoma)
In short: as §1

[6] = tested on: HCC1187 (Breast Carcinoma)
In short: as §1

[7] = tested on: HCC1419 (Breast Carcinoma)
In short: as §1

[8] = tested on: JHH-4 (Hepatocellular Carcinoma)
In short: as §1

[9] = tested on: KY821 (Acute Myeloid Leukemia)
In short: as §1

M059J (Glioblastoma) = tested on: M059J (Glioblastoma)
In short: as §1

[10] = tested on: NCCIT (Other Solid Carcinomas)
In short: as §1

[11] = tested on: NCI-H520 (Squamous Cell Lung Carcinoma)
In short: as §1

[12] = tested on: NCI-H526 (Small Cell Lung Carcinoma)
In short: as §1

RD (Rhabdomyosarcoma) = tested on: RD (Rhabdomyosarcoma)
In short: as §1

[13] = tested on: SK-GT-4 (Esophageal Adenocarcinoma)
In short: as §1

[14] = tested on: SNU-398 (Hepatocellular Carcinoma)
In short: as §1

[15] = tested on: ST486 (Burkitt's Lymphoma)
In short: as §1

[16] = tested on: SU-DHL-5 (B-Cell Non-Hodgkin's Lymphoma)
In short: as §1

[17] = tested on: T-T (Esophageal Squamous Cell Carcinoma)
In short: as §1

[18] = tested on: VMRC-RCZ (Kidney Carcinoma)
In short: as §1

Row | SMILES | combination Emax [1] | combination Emax [2] | combination Emax [3] | combination Emax [4] | combination Emax [5] | combination Emax [6] | combination Emax [7] | combination Emax [8] | combination Emax [9] | combination Emax (M059J (Glioblastoma)) | combination Emax [10] | combination Emax [11] | combination Emax [12] | combination Emax (RD (Rhabdomyosarcoma)) | combination Emax [13] | combination Emax [14] | combination Emax [15] | combination Emax [16] | combination Emax [17] | combination Emax [18]
1 | CCN(CCO)CCCOc1ccc2c(Nc3cc(CC(=O)Nc4cccc(F)c4)[nH]n3)ncnc2c1 [AZD2811] + C[C@@H]1COCCN1C2=NC(=NC(=C2)C3(CC3)[S@](=N)(=O)C)C4=C5C=CNC5=NC=C4 [AZD6738] (first compound max 1 µM, 7x7, partner max 10 µM) | 0.332 | 0.524 | 0.648 | 0.435 | 0.977 | 0.846 | 0.0919 | 0.0985 | 0.968 | 0.646 | 0.561 | 0.663 | 0.634 | 0.252 | 0.583 | 0.485 | 0.913 | 1 | 0.42 | 0.279
2 | CCN(CCO)CCCOc1ccc2c(Nc3cc(CC(=O)Nc4cccc(F)c4)[nH]n3)ncnc2c1 [AZD2811] + O=C(c1cc(Cc2n[nH]c(=O)c3ccccc23)ccc1F)N1CCN(C(=O)C2CC2)CC1 [Olaparib] (first compound max 1 µM, 7x7, partner max 10 µM) | 0.3 | 0.162 | 0.218 | 0.177 | 0.71 | 0.824 | 0.115 | 0.0395 | 0.455 | 0.413 | 0.226 | 0.345 | 0.642 | 0.19 | 0.223 | 0.365 | 0.856 | 1 | 0.212 | 0.195
3 | CCc1c2c(nc3ccc(O)cc13)-c1cc3c(c(=O)n1C2)COC(=O)[C@]3(O)CC [SN-38] + CN(C)CCCOc1ccc(-c2ccc3ncc4c(c3c2)n(C2CCOCC2)c(=O)n4C)cn1 [AZD0156] (first compound max 0.3 µM, 7x7, partner max 1 µM) | 0.319 | 0.624 | 0.532 | 0.514 | 1 | 0.336 | 0.444 | 0.905 | 0.998 | 0.978 | 0.246 | 0.786 | 1 | 0.246 | 0.258 | 0.231 | 0.733 | 1 | 0.803 | 0.261
4 | COc1cccc(OCCCN)c1-c1cc(Nc2cnc(C#N)cn2)n[nH]1 [Prexasertib] + O=C(c1cc(Cc2n[nH]c(=O)c3ccccc23)ccc1F)N1CCN(C(=O)C2CC2)CC1 [Olaparib] (first compound max 1 µM, 7x7, partner max 10 µM) | 0.398 | 0.301 | 0.801 | 0.412 | 1 | 0.614 | 0.266 | 0.532 | 1 | 0.779 | 0.621 | 0.825 | 0.912 | 0.58 | 0.593 | 0.383 | 0.973 | 1 | 0.795 | 0.408
5 | Cc1c2c(nn1C)CSCc1cc(n(C)n1)CSc1cc(c3ccccc3c1)OCCCc1c(C(=O)O)n(C)c3c-2c(Cl)ccc13 [AZD5991] + CN(C)CCCOc1ccc(-c2ccc3ncc4c(c3c2)n(C2CCOCC2)c(=O)n4C)cn1 [AZD0156] (first compound max 1 µM, 7x7, partner max 1 µM) | 0.497 | 0.154 | 0.48 | 0.548 | 0.834 | 0.988 | 0.385 | 0.331 | 1 | 0.338 | 0.641 | 0.509 | 0.378 | 0.603 | 0.277 | 1 | 0.805 | 1 | 0.901 | 0.21
6 | CN(C)CCCOc1ccc(-c2ccc3ncc4c(c3c2)n(C2CCOCC2)c(=O)n4C)cn1 [AZD0156] + C=CCn1c(=O)c2cnc(Nc3ccc(N4CCN(C)CC4)cc3)nc2n1-c1cccc(C(C)(C)O)n1 [AZD1775] (first compound max 1 µM, partner max 1 µM) | 0.49 | 0.292 | 0.651 | 0.257 | 0.891 | 0.299 | 0.104 | 0.428 | 0.987 | 0.628 | 0.858 | 0.789 | 0.65 | 0.401 | 0.4 | 0.473 | 0.987 | 0.977 | 0.377 | 0.206
7 | CN(C)CCCOc1ccc(-c2ccc3ncc4c(c3c2)n(C2CCOCC2)c(=O)n4C)cn1 [AZD0156] + O=C(c1cc(Cc2n[nH]c(=O)c3ccccc23)ccc1F)N1CCN(C(=O)C2CC2)CC1 [Olaparib] (first compound max 3 µM, partner max 3 µM) | 0.467 | 0.177 | 0.576 | 0.414 | 0.445 | 0.197 | 0.187 | 0.22 | 0.4 | 0.318 | 0.194 | 0.473 | 0.408 | 0.238 | 0.37 | 0.387 | 0.621 | 0.794 | 0.346 | 0.181
8 | CN(CCO)CC[C@H](CSc1ccccc1)Nc1ccc(S(=O)(=O)NC(=O)c2ccc(N3CCC([C@@H](O)c4ccccc4-c4ccc(Cl)cc4)CC3)cc2)cc1S(=O)(=O)C(F)(F)F [AZD4320] + Cn1cnc2c(F)c(Nc3ccc(Br)cc3Cl)c(C(=O)NOCCO)cc21 [Selumetinib] (first compound max 1 µM, 7x7, partner max 3 µM) | 0.643 | 0.216 | 0.413 | 0.358 | 1 | 0.377 | 0.336 | 0.326 | 1 | 0.3 | 0.224 | 0.203 | 0.984 | 0.904 | 0.624 | 0.38 | 0.866 | 0.962 | 0.325 | 0.238
9 | C=CCn1c(=O)c2cnc(Nc3ccc(N4CCN(C)CC4)cc3)nc2n1-c1cccc(C(C)(C)O)n1 [AZD1775] + C[C@@H]1COCCN1C2=NC(=NC(=C2)C3(CC3)[S@](=N)(=O)C)C4=C5C=CNC5=NC=C4 [AZD6738] (first compound max 1 µM, partner max 10 µM) | 0.461 | 0.682 | 0.763 | 0.511 | 1 | 0.683 | 0.221 | 0.498 | 1 | 0.777 | 0.905 | 0.86 | 0.873 | 0.655 | 0.722 | 0.563 | 0.979 | 1 | 0.73 | 0.41
10 | C[C@@H](c1ccc2nccn2c1)n1nnc2ncc(-c3cnn(C)c3)nc21 [Savolitinib] + CC1(C)CCC(CN2CCN(c3ccc(C(=O)NS(=O)(=O)c4ccc(NCC5CCOCC5)c([N+](=O)[O-])c4)c(Oc4cnc5[nH]ccc5c4)c3)CC2)=C(c2ccc(Cl)cc2)C1 [Venetoclax] (first compound max 1 µM, 7x7, partner max 1 µM) | 0.29 | 0.117 | 0.0972 | 0.299 | 0.155 | 0.0587 | 0.268 | 0.539 | 0.895 | 0.182 | 0.182 | 0.138 | 0.621 | 0.143 | 0.101 | 0.127 | 0.118 | 0.142 | 0.236 | 0.152
11 | Cc1c2c(nn1C)CSCc1cc(n(C)n1)CSc1cc(c3ccccc3c1)OCCCc1c(C(=O)O)n(C)c3c-2c(Cl)ccc13 [AZD5991] + CCN(CCO)CCCOc1ccc2c(Nc3cc(CC(=O)Nc4cccc(F)c4)[nH]n3)ncnc2c1 [AZD2811] (first compound max 1 µM, 7x7, partner max 1 µM) | 0.652 | 0.158 | 0.702 | 0.587 | 0.959 | 1 | 0.308 | 0.315 | 1 | 0.523 | 0.674 | 0.599 | 0.8 | 0.546 | 0.26 | 0.991 | 0.976 | 1 | 0.95 | 0.221
12 | C[C@@H]1COCCN1c1cc(C2([S@](C)(=N)=O)CC2)nc(-c2ccnc3[nH]ccc23)n1 [AZD6738] + O=C(c1cc(Cc2n[nH]c(=O)c3ccccc23)ccc1F)N1CCN(C(=O)C2CC2)CC1 [Olaparib] (first compound max 10 µM, 7x7, partner max 10 µM) | 0.36 | 0.473 | 0.643 | 0.528 | 0.911 | 0.532 | 0.191 | 0.251 | 0.97 | 0.684 | 0.609 | 0.752 | 0.752 | 0.332 | 0.51 | 0.354 | 0.909 | 1 | 0.448 | 0.319
13 | C=CCn1c(=O)c2cnc(Nc3ccc(N4CCN(C)CC4)cc3)nc2n1-c1cccc(C(C)(C)O)n1 [AZD1775] + C1CN(CCC1(C(=O)N[C@@H](CCO)C2=CC=C(C=C2)Cl)N)C3=NC=NC4=C3C=CN4 [Capivasertib] (first compound max 3 µM, partner max 3 µM) | 0.578 | 0.522 | 0.848 | 0.649 | 0.95 | 0.936 | 0.282 | 0.439 | 0.994 | 0.826 | 0.963 | 0.795 | 0.907 | 0.797 | 0.596 | 0.786 | 0.971 | 0.99 | 0.618 | 0.359
